# According to ChEMBL document CHEMBL1201862, “PubChem BioAssay data set” (2004):
# Activity calls are given as the source filed them.
# Experiments:
# [1] = Vero cell cytotoxicity, dose response, cytotoxicity control for M. tuberculosis growth inhibitor project, Vero cells, purified and synthesized compounds, set 4 (AID 504854); assay type: functional; conditions: Mycobacterium tuberculosis
# [2] = target: T1, Sentrin-specific protease 6 (Homo sapiens, UniProt Q9GZR1); assay: SENP6 protease inhibitors, SAR follow-up, biochemical, luminescence, set 2 (AID 588598); assay type: functional
# T1 sequence (Q9GZR1 whole entry): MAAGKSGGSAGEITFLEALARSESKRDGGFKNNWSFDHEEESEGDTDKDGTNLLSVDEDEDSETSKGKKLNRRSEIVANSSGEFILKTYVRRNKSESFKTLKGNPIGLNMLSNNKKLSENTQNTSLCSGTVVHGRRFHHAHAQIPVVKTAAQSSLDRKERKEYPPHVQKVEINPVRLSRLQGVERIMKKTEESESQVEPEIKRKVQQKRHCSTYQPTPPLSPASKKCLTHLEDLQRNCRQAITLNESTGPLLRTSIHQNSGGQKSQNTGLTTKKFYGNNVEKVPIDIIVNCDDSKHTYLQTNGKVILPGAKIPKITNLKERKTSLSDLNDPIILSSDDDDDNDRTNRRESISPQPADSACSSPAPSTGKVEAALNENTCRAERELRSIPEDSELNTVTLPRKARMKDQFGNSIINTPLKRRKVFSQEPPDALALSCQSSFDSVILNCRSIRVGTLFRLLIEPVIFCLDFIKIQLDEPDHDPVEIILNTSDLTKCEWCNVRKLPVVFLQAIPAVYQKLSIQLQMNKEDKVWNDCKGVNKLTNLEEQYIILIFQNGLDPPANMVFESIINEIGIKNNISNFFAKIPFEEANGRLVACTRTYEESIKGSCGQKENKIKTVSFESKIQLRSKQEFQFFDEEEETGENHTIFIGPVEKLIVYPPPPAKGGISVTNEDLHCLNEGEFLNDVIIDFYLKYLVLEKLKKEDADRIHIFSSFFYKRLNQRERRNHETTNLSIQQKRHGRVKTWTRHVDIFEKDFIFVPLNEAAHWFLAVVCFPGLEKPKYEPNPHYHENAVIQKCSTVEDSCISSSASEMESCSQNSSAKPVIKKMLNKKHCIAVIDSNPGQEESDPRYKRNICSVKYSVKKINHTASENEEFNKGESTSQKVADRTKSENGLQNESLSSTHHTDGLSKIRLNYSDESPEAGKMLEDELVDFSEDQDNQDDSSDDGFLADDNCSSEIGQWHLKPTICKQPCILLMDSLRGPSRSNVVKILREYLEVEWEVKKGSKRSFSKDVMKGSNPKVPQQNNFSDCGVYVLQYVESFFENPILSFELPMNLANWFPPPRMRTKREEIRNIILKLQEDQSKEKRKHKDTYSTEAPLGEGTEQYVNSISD
# Caspase-3 = target: T2, Caspase-3 (Homo sapiens, UniProt P42574); assay: caspase-3 inhibitors as off-family protease, SAR follow-up, selectivity assay for SENP protease inhibitor project, biochemical, luminescence, set 2 (AID 588599); assay type: functional
# T2 sequence (P42574 whole entry): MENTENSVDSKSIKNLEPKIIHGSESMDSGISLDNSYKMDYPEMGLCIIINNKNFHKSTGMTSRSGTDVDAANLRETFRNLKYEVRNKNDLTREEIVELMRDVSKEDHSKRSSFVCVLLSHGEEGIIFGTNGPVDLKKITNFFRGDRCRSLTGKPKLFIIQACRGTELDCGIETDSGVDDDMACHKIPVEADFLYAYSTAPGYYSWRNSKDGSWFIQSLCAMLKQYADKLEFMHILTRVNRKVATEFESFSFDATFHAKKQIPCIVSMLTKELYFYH
# [3] = target: T3, Sentrin-specific protease 8 (Homo sapiens, UniProt Q96LD8); assay: SENP8 protease inhibitors, SAR follow-up, biochemical, luminescence, set 2 (AID 588601); assay type: functional
# T3 sequence (Q96LD8 whole entry): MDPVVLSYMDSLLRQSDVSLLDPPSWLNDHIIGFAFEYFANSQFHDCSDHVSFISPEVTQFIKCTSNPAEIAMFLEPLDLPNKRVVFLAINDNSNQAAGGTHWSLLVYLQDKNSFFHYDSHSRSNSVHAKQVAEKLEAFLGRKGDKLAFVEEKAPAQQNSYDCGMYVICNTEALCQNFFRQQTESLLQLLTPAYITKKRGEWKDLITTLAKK
# [4] = target: T4, Sentrin-specific protease 7 (Homo sapiens, UniProt Q9BQF6); assay: SENP7 protease inhibitors, SAR follow-up, biochemical, luminescence, set 2 (AID 588600); assay type: functional
# T4 sequence (Q9BQF6 whole entry): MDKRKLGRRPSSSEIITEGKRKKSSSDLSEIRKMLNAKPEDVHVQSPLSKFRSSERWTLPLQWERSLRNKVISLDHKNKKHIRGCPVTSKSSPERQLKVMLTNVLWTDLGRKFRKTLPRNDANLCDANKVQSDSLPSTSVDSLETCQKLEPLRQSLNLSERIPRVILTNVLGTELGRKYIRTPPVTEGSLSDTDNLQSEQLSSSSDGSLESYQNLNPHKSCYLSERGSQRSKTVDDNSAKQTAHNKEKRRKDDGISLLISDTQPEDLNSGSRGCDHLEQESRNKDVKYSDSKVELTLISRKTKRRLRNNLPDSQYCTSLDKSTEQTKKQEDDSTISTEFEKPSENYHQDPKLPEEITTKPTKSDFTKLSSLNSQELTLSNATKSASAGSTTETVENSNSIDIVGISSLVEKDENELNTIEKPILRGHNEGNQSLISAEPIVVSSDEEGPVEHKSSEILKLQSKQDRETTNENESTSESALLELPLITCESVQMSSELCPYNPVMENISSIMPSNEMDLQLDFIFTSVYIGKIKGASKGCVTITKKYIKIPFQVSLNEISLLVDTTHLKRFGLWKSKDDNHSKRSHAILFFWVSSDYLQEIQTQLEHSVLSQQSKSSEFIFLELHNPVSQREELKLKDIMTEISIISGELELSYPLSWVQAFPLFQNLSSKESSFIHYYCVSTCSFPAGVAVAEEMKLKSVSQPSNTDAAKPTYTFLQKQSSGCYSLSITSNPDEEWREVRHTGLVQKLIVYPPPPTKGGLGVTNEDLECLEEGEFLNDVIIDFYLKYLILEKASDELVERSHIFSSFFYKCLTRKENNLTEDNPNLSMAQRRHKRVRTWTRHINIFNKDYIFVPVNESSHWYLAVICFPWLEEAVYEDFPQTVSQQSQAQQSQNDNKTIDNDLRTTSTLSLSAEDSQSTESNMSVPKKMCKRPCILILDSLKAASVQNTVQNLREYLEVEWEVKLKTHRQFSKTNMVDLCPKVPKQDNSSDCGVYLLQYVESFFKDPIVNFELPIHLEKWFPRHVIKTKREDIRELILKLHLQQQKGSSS
# [5] = target: Latent membrane protein 1 (Human herpesvirus 4 (strain B95-8), UniProt P03230); assay: TES1-eGFP NF-kB reporter inhibition versus Tet-On dsRED, dose response, selectivity assay for LMP1 NF-kB inhibitor project, imaging, HEK293T, dual-color eGFP/dsRED, cherry-picks (AID 588398); assay type: functional, cell-based
# [6] = target: T5, Acyl-homoserine lactone acylase PvdQ (Pseudomonas aeruginosa (strain LESB58), UniProt Q9I194); assay: P. aeruginosa PvdQ acylase inhibitors, dose response, biochemical, fluorescence, plate reader and imaging, cherry-picks (AID 493231)
# T5 sequence (Q9I194 whole entry): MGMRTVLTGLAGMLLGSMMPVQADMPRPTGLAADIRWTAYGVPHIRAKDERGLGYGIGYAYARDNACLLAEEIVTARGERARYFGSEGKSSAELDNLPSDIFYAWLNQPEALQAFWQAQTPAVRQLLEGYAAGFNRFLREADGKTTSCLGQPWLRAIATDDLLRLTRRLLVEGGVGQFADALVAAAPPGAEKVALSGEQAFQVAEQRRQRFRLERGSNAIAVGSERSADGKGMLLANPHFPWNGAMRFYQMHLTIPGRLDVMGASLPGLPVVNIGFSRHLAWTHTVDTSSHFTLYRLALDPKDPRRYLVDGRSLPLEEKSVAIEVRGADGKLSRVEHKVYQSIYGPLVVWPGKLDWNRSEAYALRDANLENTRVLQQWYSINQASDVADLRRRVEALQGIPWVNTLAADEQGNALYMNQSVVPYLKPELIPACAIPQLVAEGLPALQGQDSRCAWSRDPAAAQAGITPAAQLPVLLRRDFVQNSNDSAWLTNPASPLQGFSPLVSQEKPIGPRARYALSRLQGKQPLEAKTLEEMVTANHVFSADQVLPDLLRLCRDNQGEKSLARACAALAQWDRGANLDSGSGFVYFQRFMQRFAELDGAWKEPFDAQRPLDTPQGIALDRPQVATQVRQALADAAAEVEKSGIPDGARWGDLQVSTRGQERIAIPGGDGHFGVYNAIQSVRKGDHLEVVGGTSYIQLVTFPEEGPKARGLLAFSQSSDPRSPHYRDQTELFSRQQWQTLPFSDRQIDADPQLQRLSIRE
# HEK293 = assay: inhibitors of LMP1-driven NF-kB reporter, dose response, cell-based, HEK293, luciferase, cherry-pick (AID 588343); assay type: functional; conditions: Homo sapiens
# Sequence of Latent membrane protein 1 (P03230 whole entry): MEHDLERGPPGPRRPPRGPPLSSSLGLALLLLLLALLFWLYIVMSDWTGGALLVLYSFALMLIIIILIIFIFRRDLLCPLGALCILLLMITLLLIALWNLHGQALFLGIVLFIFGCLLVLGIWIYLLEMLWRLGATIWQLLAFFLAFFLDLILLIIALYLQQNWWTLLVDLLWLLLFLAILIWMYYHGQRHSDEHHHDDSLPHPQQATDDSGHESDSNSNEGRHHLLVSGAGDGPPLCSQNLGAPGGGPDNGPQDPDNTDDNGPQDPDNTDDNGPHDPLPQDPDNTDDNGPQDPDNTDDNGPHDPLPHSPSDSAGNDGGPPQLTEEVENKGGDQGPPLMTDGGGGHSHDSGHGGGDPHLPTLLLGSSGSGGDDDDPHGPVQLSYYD
compound,measurement,setting,value
CCC(Sc1nc(O)c2c(n1)CCC2)C(=O)Nc1cccc(OC)c1 (stereo not drawn),CC50,[1],> 100 µM (active)
O=C(N/N=C/c1c[nH]c2ccccc12)C1CC1c1ccccc1 (stereo not drawn),IC50,[2],> 99 µM (inactive)
same,IC50,Caspase-3,> 99 µM (inactive)
same,IC50,[3],> 99 µM (inactive)
same,IC50,[4],> 99 µM (inactive)
Cc1cc(NC(=O)c2ccc3c(c2)OCCO3)no1,AC50,[5],32.7 µM (active)
same,AC50,[6],49.6 µM (active)
same,AC50,HEK293,4.15 µM (active)
